The results in this text go back to paper PMC9207888, “Hydride Transfer Mechanism of Enzymatic Sugar Nucleotide C2 Epimerization Probed with a Loose-Fit CDP-Glucose Substrate” (ACS Catalysis, 2022).

Assay type in all cases: binding
The target in assay [1] is T1, TaCPa2E (Thermodesulfatator atlanticus CDP-paratose 2-epimerase; C2 epimerase) (Thermodesulfatator atlanticus, UniProt Z9RN36Q305).
T1 construct: C-terminal His-tag, pET21a, expressed in E. coli BL21(DE3); 39362 g/mol functional monomer; catalytic Tyr164; SDR superfamily
T1 sequence (Z9RN36Q305 1-340): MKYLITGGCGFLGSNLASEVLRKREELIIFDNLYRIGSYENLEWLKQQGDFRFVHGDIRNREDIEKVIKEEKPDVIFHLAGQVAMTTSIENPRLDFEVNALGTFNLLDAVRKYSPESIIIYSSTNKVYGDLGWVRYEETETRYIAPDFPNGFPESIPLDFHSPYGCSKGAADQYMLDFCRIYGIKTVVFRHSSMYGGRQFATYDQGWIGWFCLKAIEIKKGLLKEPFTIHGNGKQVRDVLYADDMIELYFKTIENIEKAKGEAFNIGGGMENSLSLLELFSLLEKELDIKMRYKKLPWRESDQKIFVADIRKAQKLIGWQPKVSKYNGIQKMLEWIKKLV
The experiment in a line: HPLC quantification of coenzyme released from denatured purified enzyme. The conditions noted are these: resting enzyme without substrate, 60 °C, pH 7.5. The source says: HPLC quantification of coenzyme released from denatured purified enzyme on TaCPa2E (Thermodesulfatator atlanticus CDP-paratose 2-epimerase; C2 epimerase) | the NADH content of the resting enzyme in the absence of the substrate

Assay [2] concerns the target T1, TaCPa2E (Thermodesulfatator atlanticus CDP-paratose 2-epimerase; C2 epimerase). The experiment in a line: HPLC of coenzyme released from denatured purified enzyme. As to conditions: tightly bound, co-purified; extraction not quantitative.
In assay [3] the target is T2, TaCPa2E (Thermodesulfatator atlanticus CDP-paratose 2-epimerase; C2 epimerase) (Thermodesulfatator atlanticus, UniProt Z9RN36Q305, Y164F).
T2 construct: C-terminal His-tag, pET21a, expressed in E. coli BL21(DE3); 39362 g/mol functional monomer; catalytic Tyr164; SDR superfamily
The experiment in a line: co-purified coenzyme in isolated variant. The conditions noted are these: tightly bound.

Structures are written as SMILES.

In the case of `NC(=O)C1=CN([C@@H]2O[C@H](COP(=O)(O)OP(=O)(O)OC[C@H]3O[C@@H](n4cnc5c(N)ncnc54)[C@H](O)[C@@H]3O)[C@@H](O)[C@H]2O)C=CC1` [NADH], the “portion of enzyme-NADH in resting enzyme” value in assay [1] turned out to be 4.15 ± 1.0%.

As for `NC(=O)c1ccc[n+]([C@@H]2O[C@H](COP(=O)(O)OP(=O)(O)OC[C@H]3O[C@@H](n4cnc5c(N)ncnc54)[C@H](O)[C@@H]3O)[C@@H](O)[C@H]2O)c1` [NAD^+], the “HPLC of coenzyme released from denatured purified enzyme” value in assay [2] is recorded as “enzyme-bound NAD^+ could not be extracted from TaCPa2E reliably”. The “co-purified coenzyme in isolated variant” value in assay [3] is on record as “The purified variant contained tightly bound NAD^+”.
